The record followed here is ChEMBL document CHEMBL4033775, “Natural-Products-Inspired Use of the gem-Dimethyl Group in Medicinal Chemistry” (J Med Chem, 2018).

≈ marks a conversion by molar mass, not a printed value.

Series [1] has as its system Human immunodeficiency virus 1. The series is described as follows: Antiviral activity against HIV1 3B infected in human H9 cells after 4 days by ELISA. It is filed as functional, cell-based. As to conditions: Human immunodeficiency virus 1, 3B, H9, 96 h. For orientation: In an ELISA, binding on a coated surface is turned into a signal by an enzyme label.
For series [2], the system named is Human immunodeficiency virus. The series can be described thus: Antiviral activity against Human immunodeficiency virus assessed as reduction in maturation. The settings on record: Human immunodeficiency virus 1. In kind it is functional.
For a further series, the target named is Interstitial collagenase (Homo sapiens, UniProt P03956). The series can be described thus: Inhibition of human interstitial recombinant N-terminal MMP1 expressed in Escherichia coli BL21(DE3) using Mca-Pro-Leu-Gly-Leu-Dpa-Ala-Arg-NH2 as substrate after 20 to 30 mins by spectrofluorimetric analysis.
Sequence of Interstitial collagenase (P03956 whole entry): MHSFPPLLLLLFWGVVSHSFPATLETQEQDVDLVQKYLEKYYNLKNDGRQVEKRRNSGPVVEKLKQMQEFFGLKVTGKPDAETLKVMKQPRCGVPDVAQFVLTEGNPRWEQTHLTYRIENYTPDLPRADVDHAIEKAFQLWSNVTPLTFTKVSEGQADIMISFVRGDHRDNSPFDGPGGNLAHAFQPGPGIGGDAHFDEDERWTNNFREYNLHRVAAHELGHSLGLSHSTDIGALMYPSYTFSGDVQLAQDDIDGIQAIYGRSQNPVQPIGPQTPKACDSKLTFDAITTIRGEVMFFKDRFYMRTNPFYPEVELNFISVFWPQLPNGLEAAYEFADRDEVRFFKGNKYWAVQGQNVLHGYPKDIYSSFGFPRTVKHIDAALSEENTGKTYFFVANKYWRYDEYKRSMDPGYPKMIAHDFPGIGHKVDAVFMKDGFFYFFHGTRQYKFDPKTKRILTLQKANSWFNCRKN
A further series deals with T1, Matrilysin (Homo sapiens, UniProt P09237).
T1 sequence (P09237 whole entry): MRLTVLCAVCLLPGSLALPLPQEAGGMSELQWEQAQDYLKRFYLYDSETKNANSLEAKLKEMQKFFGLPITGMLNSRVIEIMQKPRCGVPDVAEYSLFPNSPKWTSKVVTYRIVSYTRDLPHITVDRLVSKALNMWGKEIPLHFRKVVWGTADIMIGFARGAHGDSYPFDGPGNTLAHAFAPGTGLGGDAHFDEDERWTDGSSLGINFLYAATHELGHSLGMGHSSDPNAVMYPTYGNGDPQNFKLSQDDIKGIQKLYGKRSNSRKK
The series can be described thus: Inhibition of MMP7 (unknown origin) expressed in Escherichia coli BL21(DE3) using Mca-Pro-Leu-Gly-Leu-Dpa-Ala-Arg-NH2 as substrate after 20 to 30 mins by spectrofluorimetric analysis.

In series [3] the target is Matrix metalloproteinase-9 (Homo sapiens, UniProt P14780). The series is described as follows: Inhibition of MMP9 (unknown origin) expressed in Escherichia coli BL21(DE3) using Mca-Pro-Leu-Gly-Leu-Dpa-Ala-Arg-NH2 as substrate after 20 to 30 mins by spectrofluorimetric analysis.
Sequence of Matrix metalloproteinase-9 (P14780 whole entry): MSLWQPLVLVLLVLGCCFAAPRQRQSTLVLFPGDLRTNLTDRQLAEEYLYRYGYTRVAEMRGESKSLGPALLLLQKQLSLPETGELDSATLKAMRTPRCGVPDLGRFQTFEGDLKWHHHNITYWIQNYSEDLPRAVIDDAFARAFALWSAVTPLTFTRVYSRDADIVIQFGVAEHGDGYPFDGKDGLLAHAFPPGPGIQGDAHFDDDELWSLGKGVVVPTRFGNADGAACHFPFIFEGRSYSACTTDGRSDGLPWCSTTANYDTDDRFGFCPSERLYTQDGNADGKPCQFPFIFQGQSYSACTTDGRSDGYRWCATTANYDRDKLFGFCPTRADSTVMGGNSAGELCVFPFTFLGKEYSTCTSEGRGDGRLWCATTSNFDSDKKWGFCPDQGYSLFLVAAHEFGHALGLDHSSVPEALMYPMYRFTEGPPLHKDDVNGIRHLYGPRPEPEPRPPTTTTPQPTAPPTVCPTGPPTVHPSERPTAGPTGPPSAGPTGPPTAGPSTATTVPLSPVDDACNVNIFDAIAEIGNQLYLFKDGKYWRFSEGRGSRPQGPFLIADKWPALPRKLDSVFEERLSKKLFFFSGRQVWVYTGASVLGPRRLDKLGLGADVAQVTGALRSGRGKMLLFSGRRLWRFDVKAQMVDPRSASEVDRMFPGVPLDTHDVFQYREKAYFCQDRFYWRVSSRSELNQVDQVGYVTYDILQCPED
Another series deals with Collagenase 3 (Homo sapiens, UniProt P45452). The series can be described thus: Inhibition of MMP13 (unknown origin) expressed in Escherichia coli BL21(DE3) using Mca-Pro-Leu-Gly-Leu-Dpa-Ala-Arg-NH2 as substrate after 20 to 30 mins by spectrofluorimetric analysis.
Series [4] deals with 72 kDa type IV collagenase (Homo sapiens, UniProt P08253). The series can be described thus: Inhibition of MMP2 (unknown origin) expressed in Escherichia coli BL21(DE3) using Mca-Pro-Leu-Gly-Leu-Dpa-Ala-Arg-NH2 as substrate after 20 to 30 mins by spectrofluorimetric analysis.
Sequence of 72 kDa type IV collagenase (P08253 whole entry): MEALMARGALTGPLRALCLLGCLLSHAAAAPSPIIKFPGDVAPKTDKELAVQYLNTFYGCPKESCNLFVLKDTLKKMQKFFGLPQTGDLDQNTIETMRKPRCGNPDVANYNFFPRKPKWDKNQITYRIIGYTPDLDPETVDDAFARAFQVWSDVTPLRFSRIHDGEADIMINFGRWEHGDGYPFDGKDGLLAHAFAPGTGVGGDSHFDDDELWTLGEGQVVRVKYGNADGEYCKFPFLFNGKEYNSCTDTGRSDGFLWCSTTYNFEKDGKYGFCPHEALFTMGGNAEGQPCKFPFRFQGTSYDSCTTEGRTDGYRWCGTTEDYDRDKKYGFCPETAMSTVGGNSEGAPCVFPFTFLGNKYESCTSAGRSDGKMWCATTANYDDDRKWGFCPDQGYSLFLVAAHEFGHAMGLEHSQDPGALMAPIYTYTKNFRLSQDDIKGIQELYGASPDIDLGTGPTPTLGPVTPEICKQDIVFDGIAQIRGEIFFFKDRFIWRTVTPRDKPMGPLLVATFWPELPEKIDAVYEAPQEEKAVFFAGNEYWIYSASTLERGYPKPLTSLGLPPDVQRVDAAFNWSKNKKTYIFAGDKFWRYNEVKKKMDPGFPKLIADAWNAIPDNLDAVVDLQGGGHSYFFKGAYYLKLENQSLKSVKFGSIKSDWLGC
A short description of series [5]: Aqueous solubility of the compound at physiological pH. It is filed as physicochemical. The settings on record: buffer.
A further series concerns A549. The series can be described thus: Cytotoxicity against human A549 cells. In kind it is functional, cell-based.

For `CC(=O)O[C@@H]1[C@H](OC(=O)CC(C)C)c2c(ccc3ccc(=O)oc23)OC1(C)C` [SUKSDORFIN], inhibition in [1] was half-maximal at 2600 nM (IC50).
On to `C=C(C)[C@@H]1CC[C@]2(C(=O)O)CC[C@]3(C)[C@H](CC[C@@H]4[C@@]5(C)CC[C@H](OC(=O)CC(C)(C)C(=O)O)C(C)(C)[C@@H]5CC[C@]43C)[C@@H]12` [BEVIRIMAT], for which the EC50 (as a rule, the concentration giving half of the maximal effect) in series [2] stood at 10.3 nM.
Take `COc1ccc(S(=O)(=O)N2CCSC(C)(C)C2C(=O)NO)cc1` (centres undefined): the IC50 (in general, the concentration that gives 50% inhibition) at Interstitial collagenase came to 0.4 nM; on Matrilysin it was 23 nM; in series [3] it was 0.9 nM; against Collagenase 3, 1 nM; in series [4], 1.4 nM.
`COc1ccc(S(=O)(=O)N2CCCSC(C)(C)[C@@H]2C(=O)NO)cc1`: the solubility (as a rule, the dissolved amount per volume that the medium holds) in [5] is 800 µg/mL (≈ 2140 µM).
In the case of `CO[C@H]1C(=O)[C@]2(C)[C@@H](OC)C[C@H]3OC[C@@]3(OC(C)=O)[C@H]2[C@H](OC(=O)c2ccccc2)[C@]2(O)C[C@H](OC(=O)[C@H](O)[C@@H](NC(=O)OC(C)(C)C)c3ccccc3)C(C)=C1C2(C)C` [CABAZITAXEL], it took 1.48 nM to reach half-maximal inhibition in the series on A549 (IC50).
